Data taken from patent US4661297A, “Basic ethers of 7-oxo-7H-benzo(c) fluorene and a process for their production” (SPOFA, spojene podniky pro zdravotnickou vyrobu, priority 1980, dated 1987).
≈ marks a conversion by molar mass, not a printed value. Where a name gives a salt, the structure may show the parent alone. Read-outs that look alike come from different tables or passages of the source. Numbered stars: 1 amine (or outer) side, 2 acyl side, 3 side chain; on linkers, the order of the positions; unused ones are H or OH. Bridge positions count the residues as written; N and C are the ends. Square brackets hold non-standard residues; d marks the D form. Peptide text beside a SMILES is read from it. I, II: the chains in the order shown. Actinocin(9to1) = Cc1c2oc3c(C)ccc(C(=O)[*:1])c3nc-2c(C(=O)[*:2])c(N)c1=O; NMeV = CN[C@H](C(=O)O)C(C)C; Sar = CNCC(=O)O

Legend:
[1] = system: Ehrlich's ascitic carcinoma; assay: Incorporation of 14C-adenine and 14C-valine into cellular fraction of Ehrlich's ascitic carcinoma in vitro; type: cell-based, mouse; details: for Radioactivity incorporation, adenine: control 1060 cpm; for Radioactivity incorporation, valine: control 2455 cpm; for activity at 75 µM / activity at 150 µM / activity at 300 µM / activity at 600 µM / IC50 / activity at 37.5 µM: Mus musculus, Ehrlich; for IC50: in vitro
Text: In Table 4, the effect of Tiloron (NSC 143969; 2,7-bis-[2-(diethylamino)ethoxy]fluorene-9-one) and 5-(2-dimethylaminoethoxy)-7-oxo-7H-benzo(c) fluorene hydrochloride are compared on incorporation of ^14 C-adenine and ^14 C-valine with the cellular fraction of Ehrlich's ascitic carcinoma (insoluble in trichloacetic acid). The tests in vitro reveal that the composition of the invention was more than 10 times as effective as Tiloron. The inhibition of incorporation of adenine and valine into the used system of tumor cells is considered as an indication of an anti-tumorous, cytostatic action. This biological activity of the described compound is considerably greater than that of its congener Tiloron. (See also Table 4.)
Effects of Tiloron and substance 13468 on incorporation of ^14
C-adenine and ^14 C-valine
into cellular fraction of Ehrlichs ascitic carcinoma, insoluble in
in vitro. Radioactivity incorporation expressed in cpm.
IC50 = concentration inhibiting incorporation by 50 percent.

Yoshida's Tumor = assay: Inhibition of incorporation of labelled substrates in Yoshida's tumor; type: cell-based; details: Rattus norvegicus, (U-14C) amino acid mixture, Table VI, read-out: IC50 (concentration lowering initial rate of 14C incorporation to 50% of control)
Text: Tumor growth may be observed clinically or in experiments in vivo, that is, with experimental animals, or in vitro, for example, in tissue cultures prepared from tumors. Assessment of tumor growth may be effected by measuring the weight of the tumor mass or, more effectively, by measuring the radioactivity after incorporation therein of certain substances of natural origin such as amino acids, adenine, thymidine and the like labelled with radioactive atoms such as ^14 C, ^3 H, etc.
(§1) Thus, by way of exemplification, the IC^50 values (inhibitory concentration which lowered the initial rate of ^14 C incorporation to 50% of control) are shown in Table VI, below (Yoshida's Tumor, (U-^14 C) amino acid mixture)
The ^IC 50 values of compound 13468 are also shown in Table VII with varying substrates.

[2] = system: DNA, RNA and protein biosynthesis; assay: Effect on DNA, RNA and protein biosynthesis (substrate incorporation); type: cell-based; details: substrate (6-3H)uridine
Text: as §1
The foregoing data clearly indicate that the compounds of the invention are potent inhibitors of DNA, RNA and protein biosynthesis. This is of significance because the suppression of tumor cells in a host is attained by inhibition of the biosynthesis of DNA, RNA and proteins.

Acute toxicity in mice = details: mouse, in vivo, sc; subcutaneously; mice S, males 22-24 gram
Text: The anti-tumor compounds described herein have also been studied from the standpoint of toxicity and the conclusion drawn that they are not toxic to mammalian hosts. The toxicological data set forth in Table IX, below, supports this conclusion.

[3] = system: HK: solid tumors, originally spontaneous mammary-gland adenocarcinoma; assay: Effect on course of transplanted HK solid mammary-gland adenocarcinoma in mice; type: in vivo, mouse (H); details: s.c. 8×25 mg/kg, days 5-10,12,13
Text: (§2) The therapeutic effect of the described compounds on transplanted tumors in experimental animals is shown in Tables 1-3, on the following five pages.
(§3) &=statistically significant differences versus control at P=0.05
HK: Solid tumors, originally spontaneous mammary-gland adenocarcinoma in H mice

La leukaemia = assay: Effect on course of transplanted La leukaemia in mice; type: in vivo, mouse (C57 Bl); details: s.c. 1×300 mg/kg, day 3; significant (&)
Text: as §2, §3
La: La leukaemia in mice C57 Bl

Yoshida's ascitic tumor = assay: Effect on course of transplanted Yoshida's ascitic tumor in rats; type: in vivo, rat (Wistar); details: days 1-5, Tables I and II, significant (&)
Text: as §2, §3
Y: Yoshida's ascitic tumor in Wistar rats

L1210 leukaemia = assay: Effect on course of transplanted L1210 leukaemia in mice; type: in vivo, mouse (hybrid DBA/H); details: s.c. 1×250 mg/kg, day 1; significant (&)
Text: as §2, §3
L1210 : Leukaemia growing in the form of ascitic tumors in hybrid DBA/H mice

CCN(CC)CCOc1ccc2c(c1)C(=O)c1cc(OCCN(CC)CC)ccc1-2 [Tiloron, 2,7-bis-[2-(diethylamino)ethoxy]fluorene-9-one]
Radioactivity incorporation, adenine ([1]; 75 μM): 1252 cpm | Radioactivity incorporation, valine ([1]; 75 μM): 2374 cpm | Radioactivity incorporation, adenine ([1]; 150 μM): 1096 cpm | Radioactivity incorporation, valine ([1]; 150 μM): 2247 cpm | Radioactivity incorporation, adenine ([1]; 300 μM): 979 cpm | Radioactivity incorporation, valine ([1]; 300 μM): 2443 cpm | Radioactivity incorporation, adenine ([1]; 600 μM): 563 cpm | Radioactivity incorporation, valine ([1]; 600 μM): 1944 cpm | Radioactivity incorporation, adenine ([1]; 37,5 μM): 1160 cpm | Radioactivity incorporation, valine ([1]; 37,5 μM): 2395 cpm | activity at 75 µM ([1]; 75 μM, read-out: Incorporation of adenine relative to control (0 μM = 100%)): 118% | activity at 75 µM ([1]; 75 μM, read-out: Incorporation of valine relative to control (0 μM = 100%)): 97% | activity at 150 µM ([1]; 150 μM, read-out: Incorporation of adenine relative to control (0 μM = 100%)): 103% | activity at 150 µM ([1]; 150 μM, read-out: Incorporation of valine relative to control (0 μM = 100%)): 92% | activity at 300 µM ([1]; 300 μM, read-out: Incorporation of adenine relative to control (0 μM = 100%)): 92% | activity at 300 µM ([1]; 300 μM, read-out: Incorporation of valine relative to control (0 μM = 100%)): 100% | activity at 600 µM ([1]; 600 μM, read-out: Incorporation of adenine relative to control (0 μM = 100%)): 53% | activity at 600 µM ([1]; 600 μM, read-out: Incorporation of valine relative to control (0 μM = 100%)): 79% | IC50 ([1]; 14C-adenine, read-out: IC50 (concentration inhibiting incorporation by 50 percent), adenine): 600 µM | IC50 ([1]; 14C-valine, read-out: IC50 (concentration inhibiting incorporation by 50 percent), valine): 600 µM | activity at 37.5 µM ([1]; 37,5 μM, read-out: Incorporation of adenine relative to control (0 μM = 100%)): 109% | activity at 37.5 µM ([1]; 37,5 μM, read-out: Incorporation of valine relative to control (0 μM = 100%)): 98% | IC50 (Yoshida's Tumor): 154 µM

Cc1c2oc3c(C)ccc(C(=O)N[C@@H]4C(=O)N[C@H](C(C)C)C(=O)N5CCC[C@H]5C(=O)N(C)CC(=O)N(C)[C@@H](C(C)C)C(=O)O[C@@H]4C)c3nc-2c(C(=O)N[C@@H]2C(=O)N[C@H](C(C)C)C(=O)N3CCC[C@H]3C(=O)N(C)CC(=O)N(C)[C@@H](C(C)C)C(=O)O[C@@H]2C)c(N)c1=O [Actinomycin D] (I: T[dV]P[Sar][NMeV] / II: T[dV]P[Sar][NMeV]; ester I:1-I:C, II:1-II:C; linker I:N-II:N via Actinocin(9to1))
IC50 [2]: 1.7 µg/mL (≈ 1.35 µM)

CN(C)CC(C)(C)COc1cc2c(c3ccccc13)-c1ccccc1C2=O [compound 13467, hydrochloride]
LD50 (Acute toxicity in mice): 550 mg/kg | IC50 (Yoshida's Tumor): 101 µM | Survival time of animals with respect to geom. mean [3]: 89% | Relative tumour size (% of control value) ([3]; assessed day 14, significant (&)): 45% | Survival time of animals with respect to median (La leukaemia): 186% | Survival time of animals with respect to geom. mean (Yoshida's ascitic tumor; o. (oral) 5×100 mg/kg): 256% | Survival time of animals with respect to geom. mean (Yoshida's ascitic tumor; s.c. 5×50 mg/kg): 232% | Survival time of animals with respect to median (L1210 leukaemia): 135%
